Measurements reported in patent US20240132484A1, “BROAD SPECTRUM ANTIVIRAL COMPOUNDS TARGETING THE SKI COMPLEX” (priority 2020, published 2024).
Values joined by “and” are separate entries in the source; they are usually repeats but may differ in a detail not shown here. Identical values can stand only once. Like-named read-outs stand apart in the source and are kept apart here.

What was measured:
SARS2 = type: cell-based, SARS-CoV-2; conditions: for Infection Data: Percentage Infection Relative to Appropriate DMSO Control: avg background subtraction, replicate wells; for Infection Data: Average, Mean: average of Exp 1-3 (SMW475, SMW477, SMW478), n 9
cells (nuclei count) = conditions: for Toxicity Data: Average, Mean: average of Exp 1-3 (SMW475, SMW477, SMW478), n 9

SMILES: Cc1csc(CN(CCN(C)C)Cc2ccco2)c1 [SILCS17]
- Infection Data: Percentage Infection Relative to Appropriate DMSO Control (SARS2; 1 uM, Exp 1 (SMW475)): 78.55% and 85.49% and 89.26%
- Infection Data: Percentage Infection Relative to Appropriate DMSO Control (SARS2; 1 uM, Exp 2 (SMW477)): 101.46% and 156.03% and 155.63%
- Infection Data: Percentage Infection Relative to Appropriate DMSO Control (SARS2; 1 uM, Exp 3 (SMW478)): 90.81% and 93.25% and 105.34%
- Infection Data: Average, Mean (SARS2; 1 uM): 106.20%
- Infection Data: Percentage Infection Relative to Appropriate DMSO Control (SARS2; 5 uM, Exp 1 (SMW475)): 86.61% and 84.44% and 77.45%
- Infection Data: Percentage Infection Relative to Appropriate DMSO Control (SARS2; 5 uM, Exp 2 (SMW477)): 142.87% and 172.05% and 157.06%
- Infection Data: Percentage Infection Relative to Appropriate DMSO Control (SARS2; 5 uM, Exp 3 (SMW478)): 97.85% and 101.86% and 101.30%
- Infection Data: Average, Mean (SARS2; 5 uM): 113.50%
- Infection Data: Percentage Infection Relative to Appropriate DMSO Control (SARS2; 10 uM, Exp 1 (SMW475)): 75.56% and 86.80% and 108.19%
- Infection Data: Percentage Infection Relative to Appropriate DMSO Control (SARS2; 10 uM, Exp 2 (SMW477)): 130.54% and 160.59% and 172.84%
- Infection Data: Percentage Infection Relative to Appropriate DMSO Control (SARS2; 10 uM, Exp 3 (SMW478)): 90.38% and 97.98% and 103.28%
- Infection Data: Average, Mean (SARS2; 10 uM): 114.02%
- Infection Data: Percentage Infection Relative to Appropriate DMSO Control (SARS2; 25 uM, Exp 1 (SMW475)): 41.54% and 68.32% and 68.68%
- Infection Data: Percentage Infection Relative to Appropriate DMSO Control (SARS2; 25 uM, Exp 2 (SMW477)): 38.35% and 67.19% and 82.12%
- Infection Data: Percentage Infection Relative to Appropriate DMSO Control (SARS2; 25 uM, Exp 3 (SMW478)): 68.44% and 109.27% and 278.92%
- Infection Data: Average, Mean (SARS2; 25 uM): 91.43%
- Infection Data: Percentage Infection Relative to Appropriate DMSO Control (SARS2; 50 uM, Exp 1 (SMW475)): 15.74% and 49.90% and 30.92%
- Infection Data: Percentage Infection Relative to Appropriate DMSO Control (SARS2; 50 uM, Exp 2 (SMW477)): 11.74% and 25.42% and 30.96%
- Infection Data: Percentage Infection Relative to Appropriate DMSO Control (SARS2; 50 uM, Exp 3 (SMW478)): 20.44% and 62.60% and 81.13%
- Infection Data: Average, Mean (SARS2; 50 uM): 36.54%
- Percentage Inhibition Average 1 μM (SARS2; SARS2, 1 μM): −6.20%
- Screening data (Relative infection to DMSO controls) Average 1 μM (SARS2; SARS2, 1 μM, 100=DMSO control): 106.20
- Percentage Inhibition Average 5 μM (SARS2; SARS2, 5 μM): −13.50%
- Screening data (Relative infection to DMSO controls) Average 5 μM (SARS2; SARS2, 5 μM, 100=DMSO control): 113.50
- Percentage Inhibition Average 10 μM (SARS2; SARS2, 10 μM): −14.02%
- Screening data (Relative infection to DMSO controls) Average 10 μM (SARS2; SARS2, 10 μM, 100=DMSO control): 114.02
- Percentage Inhibition Average 25 μM (SARS2; SARS2, 25 μM): 8.57%
- Screening data (Relative infection to DMSO controls) Average 25 μM (SARS2; SARS2, 25 μM, 100=DMSO control): 91.43
- Percentage Inhibition Average 50 μM (SARS2; SARS2, 50 μM): 63.46%
- Screening data (Relative infection to DMSO controls) Average 50 μM (SARS2; SARS2, 50 μM, 100=DMSO control): 36.54
- Average (relative infection to DMSO over the 5 tested concentrations) (SARS2; SARS2, average over 1 to 50 uM, 100=DMSO control): 92.34
- Toxicity Data: Average, Mean (cells (nuclei count); 1 uM): 96.29%
- Relative cell count to DMSO controls, Average 1 μM (cells (nuclei count); 1 μM, toxicity data, 100=DMSO control): 96.29
- Toxicity Data: Average, Mean (cells (nuclei count); 5 uM): 89.17%
- Relative cell count to DMSO controls, Average 5 μM (cells (nuclei count); 5 μM, toxicity data, 100=DMSO control): 89.17
- Toxicity Data: Average, Mean (cells (nuclei count); 10 uM): 88.87%
- Relative cell count to DMSO controls, Average 10 μM (cells (nuclei count); 10 μM, toxicity data, 100=DMSO control): 88.87
- Toxicity Data: Average, Mean (cells (nuclei count); 25 uM): 75.47%
- Relative cell count to DMSO controls, Average 25 μM (cells (nuclei count); 25 μM, toxicity data, 100=DMSO control): 75.47
- Toxicity Data: Average, Mean (cells (nuclei count); 50 uM): 53.52%
- Relative cell count to DMSO controls, Average 50 μM (cells (nuclei count); 50 μM, toxicity data, 100=DMSO control): 53.52
- Relative cell count to DMSO controls, Average (for correlation analysis) (cells (nuclei count); average value over the 5 tested concentrations (1 to 50 uM)): 80.66
